In article PMC3992280 (Biochimica et biophysica acta, 2014):
≈ marks a conversion by molar mass, not a printed value. Where two headings read alike, the source gives them in different places.

Legend:
[1] = test system: Mycobacterium smegmatis strain RHS 234; format: cell-based; conditions: Mycolicibacterium smegmatis, RHS234, 120 h
[2] = test system: Mycobacterium smegmatis strain mc^2155; assay: microbe, parasite or virus in culture; format: cell-based; conditions: for MIC: Mycolicibacterium smegmatis, MC^2155, 120 h; for resistance factor R (MICwt/MICmutant): mc^2155 versus RHS 234
[3] = Autoxidation of rifamycins in phosphate buffer; format: physicochemical; conditions: for spectral changes under autoxidizing conditions: phosphate buffer pH 7.3, trace metals, up to 24 h
[4] = molecular target: T1, tear lipocalin (Homo sapiens, UniProt P31025); assay: Rifamycin binding to tear lipocalin; conditions: increase in binding affinity to tear lipocalin
T1 sequence (P31025 19-176): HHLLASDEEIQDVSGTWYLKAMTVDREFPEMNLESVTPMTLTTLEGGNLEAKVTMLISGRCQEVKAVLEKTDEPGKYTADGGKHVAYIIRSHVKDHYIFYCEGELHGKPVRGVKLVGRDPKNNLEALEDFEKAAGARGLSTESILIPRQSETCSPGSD

[5] = in vivo; cited from earlier work
[6] = test system: serum albumin; conditions: cited from earlier work
[7] = test system: CYP3A4; conditions: cited from earlier work
[8] = in vivo; cited from earlier work; remark: listed apart in the source
[9] = monitored at 475 nm; cited from earlier work
[10] = molecular target: T1, tear lipocalin; conditions: read-out: Kd for tear lipocalin; known dissociation constant; cited from earlier work
[11] = molecular target: T1, tear lipocalin; assay: Protection from oxidation of rifamycins by tear lipocalin; format: physicochemical; conditions: tear lipocalin 100 μM; for oxidation by K3Fe(CN)6 after initial protection with tear lipocalin: K3Fe(CN)6 90 μM added after 180 min; for duration of protection from autoxidation by tear lipocalin: drug 15 μM, pH 7.3
[12] = test system: Mycobacterium tuberculosis; conditions: M. tuberculosis; cited from earlier work
[13] = test system: Staphylococcus aureus; conditions: in mice; cited from earlier work

## CO[C@H]1/C=C/O[C@@]2(C)Oc3c(C)c(O)c4c(c3C2=O)C2=NC3(CCN(CC(C)C)CC3)NC2=C(NC(=O)/C(C)=C\C=C\[C@H](C)[C@H](O)[C@@H](C)[C@@H](O)[C@@H](C)[C@H](OC(C)=O)[C@@H]1C)C4=O [Rifabutin]
[1]
  MIC: 0.07 µM (≈ 0.0593 µg/mL)
[2]
  MIC: 0.3 µM (≈ 0.254 µg/mL)
[3]
  spectral changes under autoxidizing conditions: did not show spectral changes under autoxidizing conditions

## CO[C@H]1/C=C/O[C@@]2(C)Oc3c(C)c(O)c4c(=O)c(c5oc6cc(N7CCN(CC(C)C)CC7)cc(O)c6nc-5c4c3C2=O)NC(=O)/C(C)=C\C=C\[C@H](C)[C@H](O)[C@@H](C)[C@@H](O)[C@@H](C)[C@H](OC(C)=O)[C@@H]1C [Rifalazil]
[4]
  free energy change of binding, rifalazil over rifampin: about 2.4 kcal/mole
[5]
  side effects: transient flue-symptoms, neutropenia, and thrombocytopenia
[1]
  MIC: < 0.06 µM
[6]; in the circulation of animals
  bound to serum albumin: 99%
[2]
  mycobactericidal activity relative to rifampin: 16 times
  MIC: 0.13 µM (≈ 0.122 µg/mL)
  resistance factor R (MICwt/MICmutant): 2
[2]; listed as rifalazil
  resistance factor R (MICwt/MICmutant): ≈ 2
[7]
  induction of CYP3A4: Notably lacking
[3]
  spectral changes under autoxidizing conditions: did not show spectral changes under autoxidizing conditions
[8]
  evidence of hepatotoxicity: Notably lacking

## CO[C@H]1/C=C/O[C@@]2(C)Oc3c(C)c(O)c4c(O)c(c(/C=N/N5CCN(C)CC5)c(O)c4c3C2=O)NC(=O)/C(C)=C\C=C\[C@H](C)[C@H](O)[C@@H](C)[C@@H](O)[C@@H](C)[C@H](OC(C)=O)[C@@H]1C [Rifampin]
[1]
  MIC: 0.3 µM (≈ 0.247 µg/mL)
[6]
  bound to serum albumin: 80-85%
[9]
  spectral changes of autoxidation, completeness: nearly complete after 24 h
[10]
  Kd: 128 µM
[2]
  MIC: 2.43 µM (≈ 2 µg/mL)
[11]
  oxidation by K3Fe(CN)6 after initial protection with tear lipocalin: rapidly oxidized
  duration of protection from autoxidation by tear lipocalin: at least 3 h
[3]
  spectral changes under autoxidizing conditions: show spectral changes under autoxidizing conditions

## CO[C@H]1/C=C/O[C@@]2(C)Oc3c(C)c(O)c4c(O)c(cc(O)c4c3C2=O)NC(=O)/C(C)=C\C=C\[C@H](C)[C@H](O)[C@@H](C)[C@@H](O)[C@@H](C)[C@H](OC(C)=O)[C@@H]1C [Rifamycin SV]
[12]
  MIC: .05 µg/mL (≈ 0.0717 µM)
[1]
  MIC: 0.69 µM (≈ 0.481 µg/mL)
[2]
  MIC: < 1.38 µM
[11]
  oxidation by K3Fe(CN)6 after initial protection with tear lipocalin: appeared better protected
  duration of protection from autoxidation by tear lipocalin: at least 3 h
[3]
  spectral changes under autoxidizing conditions: show spectral changes under autoxidizing conditions
[3]; within 30 minutes
  fraction oxidized: less than 10%

## CO[C@H]1/C=C/O[C@@]2(C)Oc3c(C)c(O)c4c(c3C2=O)C(=O)C=C(NC(=O)/C(C)=C\C=C\[C@H](C)[C@H](O)[C@@H](C)[C@@H](O)[C@@H](C)[C@H](OC(C)=O)[C@@H]1C)C4=O [Rifamycin S]
[12]
  MIC: .05 µg/mL (≈ 0.0719 µM)
[13]
  ED50 compared with rifamycin SV: higher ED50, than rifamycin SV

## CO[C@H]1/C=C/O[C@@]2(C)Oc3c(C)c(O)c4c(O)c(c(/C=N/N5CCN(C6CCCC6)CC5)c(O)c4c3C2=O)NC(=O)/C(C)=C\C=C\[C@H](C)[C@H](O)[C@@H](C)[C@@H](O)[C@@H](C)[C@H](OC(C)=O)[C@@H]1C [Rifapentine]
[1]
  MIC: 0.14 µM (≈ 0.123 µg/mL)
[2]
  MIC: < 2.28 µM
[11]
  oxidation by K3Fe(CN)6 after initial protection with tear lipocalin: rapidly oxidized
  duration of protection from autoxidation by tear lipocalin: at least 3 h
[3]
  spectral changes under autoxidizing conditions: show spectral changes under autoxidizing conditions

## CO[C@H]1/C=C/O[C@@]2(C)Oc3c(C)c(O)c4c(O)c(c5c(nc6cc(C)ccn65)c4c3C2=O)NC(=O)/C(C)=C\C=C\[C@H](C)[C@H](O)[C@@H](C)[C@@H](O)[C@@H](C)[C@H](OC(C)=O)[C@@H]1C [Rifaximin]
[1]
  MIC: 0.16 µM (≈ 0.126 µg/mL)
[2]
  MIC: < 1.27 µM
[3]
  spectral changes under autoxidizing conditions: did not show spectral changes under autoxidizing conditions
